The source of these data is patent publication US20260327628A1, “AN RNA APTAMER THAT BINDS TO ASP7967 OR AN ANALOGUE THEREOF” (priority 2022, published 2026).

Each structure is given as a SMILES string. Values joined by “and” are separate entries in the source; they are usually repeats but may differ in a detail not shown here. Equal entries are not always repeated. “Also recorded” adds a separate entry of the source. Where two headings read alike, the source gives them in different places. A value given as a limit tells only on which side of the number the result lay.

Data set [1] deals with potassium channel Kv12.2 encoded by the Kcnh3/BEC1 gene. As to conditions: cited from earlier work.
For data set [2] the following is noted: in vivo; cited from earlier work.
The subject of data set [3] is hEPO secretion from HEK293 cells. The data set is described as follows: In vitro hEPO assay (ELISA), AAV vector plasmids in HEK293 cells. The class given is cell-based, human. The method, then: For the hEPO ELISA assay in FIG. 9b, HEK293 cells were trypsinized and diluted to 2.0×10^5 cells ml^−1 and 100 μl per well were seeded onto a 96-well collagen plate. Cells in each well were transfected with 100 ng of the pAAV-CMV-hEPO-p3-d pAAV-CMV-hEPO-control, pAAV-MCS-based plasmids encoding human EPO with or without CPP-a8c-AC17-4 riboswitch using 0.3 μl of TransIT-293 Transfection Reagent according to the manufacturer's instructions. The medium in each well was replaced with fresh medium with (up to 10 μM) or without ASP7967 5 h after transfection. At 24 h after transfection, the medium in each well was collected and stored at −20° C. To measure hEPO concentrations, the medium was diluted 50-fold by PBS and further diluted 50-fold by the specimen diluent buffer included in the ELISA kit. The diluted samples were measured using Human Erythropoietin/EPO Quantikine ELISA Kit (R&D systems, Inc.) and Infinite M200 PRO microplate reader (TECAN).
Then, a8c-AC17-4-CPP was inserted into the 3′ UTR region of hEPO gene expressed from the CMV promoter in a plasmid containing AAV2 inverted terminal repeats (ITR) (pAAV-CMV-hEPO-a8c-AC17-4-CPP) (FIG. 9a). The plasmid pAAV-CMV-hEPO-a8c-AC17-4-CPP was transfected into HEK293 cells in the absence or presence (0.1~10 μM) of ASP7967. Two days after transfection, hEPO concentrations in the culture medium were measured by ELISA. […]
(ELISA stands for enzyme-linked immunosorbent assay.)

The subject of a further data set is hEPO expression in mice. The data set is described as follows: In vivo hEPO assay in mice injected with AAV8 vectors. Also noted: species or system BALB/c cAJc1 mice. The method, then:
For AAV production, 293T cells seeded in cellstack5 (Corning) were cotransfected using PEI MAX (Polysciences Inc) with 227.9 μg of the plasmid encoding AAV8 replication and capsid proteins, 455.8 μg of the plasmid encoding helper proteins and 227.9 μg of the pAAV-CMV-hEPO-a8c or -control. At 6 days after transfection, cells and supernatants were harvested, then filtered and concentrated by KrosFlo Research Ili (Spectrum Labs, Inc) for AAV purification by affinity chromatography using AKTA avant 25 (GE healthcare). Then, the virus solutions were ultracentrifuged and dialyzed. Titers of the AAV solutions were determined by quantitative PCR using the AAVpro Titration Kit (for Real-Time PCR) Ver.2 (Takara).
For in vivo animal experiments, 7-week-old male BALB/c cAJc1 mice (CLEA Japan Inc.) were intravenously injected with 200 μl of PBS (as the control group) or purified AAV8 particles (3.0×10^10 virus genome (vg) per mouse) carrying hEPO gene with or without the CPP-a8c-AC17-4 riboswitch. After 13 days from AAV injection, mice were subjected to 24 μl blood collection from tail vein and the blood samples were immediately diluted with 96 μl. At 24 h after the blood collection, the mice were orally administrated 100 mg kg^−1 of ASP7967 in 0.5% methyl cellulose (FUJIFILM Wako Pure Chemical Corp) or 0.5% methyl cellulose as the vehicle solution. At 2, 4, 6, 8 and 24 h after the ASP7967 administration, blood samples were collected as described above. The blood samples were incubated on ice, then centrifuged at 1,200×g for 15 min at 4° C. to collect serum samples. The serum samples were stored at −80° C. and used for measurement of serum hEPO concentration by ELISA.
Next, we studied the riboswitch potency and functionality in vivo. […] Mice were intravenously injected with viral vectors AAV8-CMV-hEPO-control, AAV8-CMV-hEPO-a8c-AC17-4-CPP, or saline (WT). Two weeks after AAV injection, 100 mg kg^−1 dose of ASP7967 was orally administered to induce expression from the riboswitch-regulated vector. Blood was drawn before and at multiple time points after the oral administration (FIG. 9c). Secreted hEPO levels in the serum of the mice injected with the control AAV (AAV8-CMV-hEPO-control) were around 550 mIU ml^−1, and administration of 100 mg kg^−1 dose of the ligand had no effect during the observed time period (FIG. 9d, upper right). On the other hand, upon administration of 100 mg kg^−1 dose of the ligand, hEPO secretion levels were induced by riboswitch-regulated vector (AAV8-CMV-hEPO-a8c-AC17-4-CPP) reaching approximately 115 mIU mL-1 at 6-8 h postdosing, corresponding to a 7.2-fold increase over the mice dosed with the vehicle (FIG. 9d, lower left).

A short description of data set [4]: Pharmacokinetics of ASP7967 in mice after oral administration (LC-MS/MS). The class given is in vivo, mice (BALB/c cAJc1). As to conditions: for Tmax: first sampling time point. The method, then: FIG. 10 Pharmacokinetics of ASP7967 in mice after oral administration. After oral administration at 100 mg kg^−1 to mice (BALB/c cAJc1), plasma and liver concentrations of ASP7967 were measured using liquid chromatography-tandem mass spectrometry (LC-MS/MS). ASP7967 concentrations in both plasma and liver reached maxima within the first sampling time point of 1 h and then decreased over time.

As to `Fc1ccc(Nc2nc(NCc3ncccn3)nc(Nc3ccccc3)n2)cc1` [ASP2905, reference compound], in data set [1], the “inhibition of Kv12.2 (KCNH3) in words” value was “potent and selective inhibitor; also recorded: known inhibitor”. The antipsychotic activities result in data set [2] is given as “has antipsychotic activities”.
`Fc1ccc(Nc2nc(NCc3ncccn3)nc(Nc3ccc(F)cc3)n2)cc1` [ASP7967]: the “hEPO level in medium relative to control plasmid” value in data set [3] (10 μM ASP7967, pAAV-CMV-hEPO-a8c-AC17-4-CPP) came to 29%. Further, the fold induction at 10 µM in data set [3] (Homo sapiens, HEK293, 24 h, read-out: induction of hEPO) was 10. The “hEPO secretion level (serum)” value in the data set with hEPO expression in mice (100 mg kg^−1 oral, 6-8 h postdosing, AAV8-CMV-hEPO-a8c-AC17-4-CPP) is “approximately 115 mIU mL-1”. Besides, in the data set on hEPO expression in mice (100 mg kg^−1 oral, AAV8-CMV-hEPO-a8c-AC17-4-CPP), the “increase of serum hEPO over vehicle” value was 7.2 fold and ~ 7.2 fold. In addition, in the data set with hEPO expression in mice (100 mg kg^−1 oral, AAV8-CMV-hEPO-control), the “effect of ligand on serum hEPO in mice injected with control AAV” value is reported as “no effect”. In addition, the “serum hEPO / transgene expression as ligand concentration declines” value with hEPO expression in mice (100 mg kg^−1 oral, after 6-8 h) is recorded as “subsequently decreased; also recorded: diminished as the ligand concentration in the target tissue declined”. For the same molecule, the “hEPO after readministration of the ligand” value in the data set with hEPO expression in mice (readministration, data not shown) is recorded as “reactivation of hEPO”. The Tmax in data set [4] (mouse, liver, 100 mg kg^−1 oral, read-out: time of maximum liver concentration) was ≤ 1 h; in data set [4] (mouse, plasma, 100 mg kg^−1 oral, read-out: time of maximum plasma concentration), ≤ 1 h. Besides, the Kp in data set [4] (mouse, liver, 100 mg kg^−1 oral, read-out: concentration ratio of liver to plasma) was 2.7 to 30.6. Besides, the “concentration in the liver / distribution (in words)” value in data set [4] (oral administration) is recorded as “high concentration; also recorded: distributed to the liver”.
